Laboratory results as given in article PMC4791841, “Nanomolar Inhibitors of Trypanosoma brucei RNA Triphosphatase” (mBio, 2016).
Read-outs that look alike come from different tables or passages of the source.

What was measured:
CthTTM = biological target: T1, CthTTM (Acetivibrio thermocellus, UniProt A3DIJ8); assay: TLC assay for 32Pi release from [γ-32P]ATP, CthTTM; assay type: biochemical, Clostridium thermocellum; conditions: for IC50/IC50 TbCet1, CthTTM: ratio in parentheses
T1 sequence (A3DIJ8 1-156): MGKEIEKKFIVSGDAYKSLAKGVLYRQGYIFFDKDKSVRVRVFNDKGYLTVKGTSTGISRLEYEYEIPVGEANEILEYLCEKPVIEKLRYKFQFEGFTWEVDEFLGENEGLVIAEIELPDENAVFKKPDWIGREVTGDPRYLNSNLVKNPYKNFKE

MimiCE = biological target: T2, MimiCE (Acanthamoeba polyphaga mimivirus, UniProt Q5UQX1); assay: biochemical; assay type: biochemical; conditions: for IC50/IC50 TbCet1, MimiCE: ratio in parentheses;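 on all read-outs here: mimivirus capping enzyme triphosphatase ATPase reaction, radiolabeled ATP hydrolysis to Pi quantified by TLC after 10 min, normalized to no-inhibitor control with 5% DMSO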
T2 construct: the N-terminal RTPase domain (amino acids [aa] 1 to 237) of mimivirus capping enzyme (MimiCE); HisSmt3 (N, cleaved yes); made in house; host or cells: Escherichia coli
T2 sequence (Q5UQX1 1-237): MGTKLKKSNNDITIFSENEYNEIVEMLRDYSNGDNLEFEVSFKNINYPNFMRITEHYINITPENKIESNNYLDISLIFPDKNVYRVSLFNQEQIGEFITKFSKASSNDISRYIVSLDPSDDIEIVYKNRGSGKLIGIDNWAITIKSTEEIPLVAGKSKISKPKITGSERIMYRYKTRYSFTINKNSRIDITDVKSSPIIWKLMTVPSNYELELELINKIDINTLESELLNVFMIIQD

SceCet1 = biological target: T3, SceCet1 (Saccharomyces cerevisiae, UniProt O13297); assay: TLC assay for 32Pi release from [γ-32P]ATP, SceCet1; assay type: biochemical; conditions: for IC50/IC50 TbCet1, SceCet1: ratio in parentheses
T3 construct: C-terminal catalytic domain (aa 241 to 539) of S. cerevisiae RTPase (SceCet1); made in house; host or cells: Escherichia coli
T3 sequence (O13297 241-539): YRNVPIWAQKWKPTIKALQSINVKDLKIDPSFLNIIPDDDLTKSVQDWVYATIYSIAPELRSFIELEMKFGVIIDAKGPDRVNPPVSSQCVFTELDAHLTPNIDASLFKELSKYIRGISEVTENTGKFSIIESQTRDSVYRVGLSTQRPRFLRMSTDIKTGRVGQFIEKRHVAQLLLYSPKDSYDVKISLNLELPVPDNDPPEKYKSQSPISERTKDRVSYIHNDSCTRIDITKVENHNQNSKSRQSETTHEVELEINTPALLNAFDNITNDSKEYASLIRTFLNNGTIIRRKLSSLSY

TbCet1 [1] = biological target: T4, TbCet1 (Trypanosoma brucei brucei, UniProt Q582T2); assay: TLC assay for 32Pi release from [γ-32P]ATP, TbCet1; conditions: for IC50: 2.2 nM TbCet1, 0.2 mM ATP, 2 mM Mn2+, 10 min 37°C
T4 sequence (Q582T2 1-253): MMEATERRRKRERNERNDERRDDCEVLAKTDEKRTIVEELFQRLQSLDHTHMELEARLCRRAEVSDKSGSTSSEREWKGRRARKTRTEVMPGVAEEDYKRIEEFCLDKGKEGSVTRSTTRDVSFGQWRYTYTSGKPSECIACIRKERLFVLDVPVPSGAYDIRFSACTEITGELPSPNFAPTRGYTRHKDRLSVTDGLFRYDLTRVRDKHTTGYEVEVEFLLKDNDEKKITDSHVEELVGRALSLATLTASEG

Lef4 = biological target: T5, Lef4 (Autographa californica nuclear polyhedrosis virus, UniProt P41477); assay: TLC assay for 32Pi release from [γ-32P]ATP, Lef4; assay type: biochemical, Autographa californica nucleopolyhedrovirus (AcNPV); conditions: for IC50/IC50 TbCet1, Lef4: ratio in parentheses;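 on all read-outs here: Lef4 RNA triphosphatase cleaving radiolabelled ATP over 10 min at 37°C, hydrolysis set relative to inhibitor-free 5% DMSO controls, comparisons made against TbCet1 tested the same way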
T5 construct: the N-terminal RTPase domain (aa 1 to 236) of AcNPV Lef4 capping enzyme; HisSmt3 (N, cleaved yes); made in house; host or cells: Escherichia coli
T5 sequence (P41477 1-236): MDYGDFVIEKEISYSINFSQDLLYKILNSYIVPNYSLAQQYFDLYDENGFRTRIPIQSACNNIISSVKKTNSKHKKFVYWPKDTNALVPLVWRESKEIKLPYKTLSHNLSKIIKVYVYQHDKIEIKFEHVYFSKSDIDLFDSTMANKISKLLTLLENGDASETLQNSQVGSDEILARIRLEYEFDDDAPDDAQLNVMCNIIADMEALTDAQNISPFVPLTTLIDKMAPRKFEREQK

TbCet1 [2] = biological target: T4, TbCet1; assay: colorimetric malachite green HTS assay of Pi release from ATP by TbCet1
[3] = 500 nM CthTTM, 37°C, read-out: IC50 CthTTM
[4] = 25 nM SceCet1, 30°C, read-out: IC50 SceCet1
[5] = 50 nM Lef4, 37°C, read-out: IC50 Lef4
[6] = read-out: IC50 CthTTM, 500 nM CthTTM, 37°C
[7] = read-out: IC50 MimiCE, 7 nM MimiCE, 37°C
[8] = read-out: IC50 SceCet1, 25 nM SceCet1, 30°C
[9] = read-out: IC50 TbCet1 by 32P assay

SMILES | IC50 (CthTTM; [3]) [µM] | IC50/IC50 TbCet1, CthTTM (CthTTM) | IC50 (MimiCE) [µM] | IC50/IC50 TbCet1, MimiCE (MimiCE) | IC50 (SceCet1; [4]) [µM] | IC50/IC50 TbCet1, SceCet1 (SceCet1) | IC50 (TbCet1 [1]; IC50 TbCet1 by 32P assay) [µM] | IC50 (Lef4; [5]) [µM] | IC50/IC50 TbCet1, Lef4 (Lef4) | IC50 (TbCet1 [1]; [9]) [µM] | IC50 (CthTTM) [µM] | IC50 (SceCet1) [µM] | further results
O=C(/C=C/c1ccc(O)c(O)c1)O[C@@H]1C[C@](OC(=O)/C=C/c2ccc(O)c(O)c2)(C(=O)O)C[C@@H](OC(=O)/C=C/c2ccc(O)c(O)c2)[C@H]1O [Compound 1E, 1,3,5-tricaffeoylquinic acid] | 33 | 174 | 8.4 | 44 | 29 | 153 | 0.19 | 5.6 | 29 |  |  |  | 
O=C(/C=C/c1ccc(O)cc1)O[C@@H]1[C@H](O)C[C@@](O)(C(=O)O)C[C@H]1OC(=O)/C=C/c1ccc(O)cc1 [Compound 1H, 3,4-dicoumaroylquinic acid] |  |  |  | 40 |  |  |  | 140 | 108 | 1.3 |  |  | IC50 (CthTTM; [6]): > 500 µM; IC50 (MimiCE; [7]): 52 µM; IC50 (SceCet1; [8]): > 500 µM
O=C(/C=C/c1ccccc1)O[C@@H]1C[C@](OC(=O)/C=C/c2ccccc2)(C(=O)O)C[C@@H](OC(=O)/C=C/c2ccccc2)[C@H]1OC(=O)/C=C/c1ccccc1 [Compound 1I, tetracinnamoylquinic acid] |  | 11 | 17 | 11 |  |  | 1.6 | 6 | 4 |  | 17 | > 500 | fold less potent as TbCet1 inhibitor than tetracaffeoylquinic acid (compound 1A) (TbCet1 [1]): 120 fold
O=C(OC1[C@H](OC(=O)c2ccccc2)CC(OC(=O)c2ccccc2)(C(=O)O)C[C@H]1OC(=O)c1ccccc1)c1ccccc1 (stereo partly shown) [Compound 1K] |  | 12 | 20 | 3 |  |  | 5.8 | 46 | 8 |  | 72 | > 500 | 
COc1cc(/C=C/C(=O)O[C@@H]2C[C@](O)(C(=O)O)C[C@@H](O)[C@H]2O)ccc1O [Compound 1L, 5-feruoylquinic acid] | > 500 |  |  |  | > 500 |  |  | > 500 |  | 12 |  |  | IC50 (MimiCE; 7 nM MimiCE, 37°C, read-out: IC50 MimiCE): > 500 µM
O=C(/C=C/c1ccc(O)cc1)O[C@@H]1CC(O)(C(=O)O)C[C@@H](OC(=O)/C=C/c2ccc(O)cc2)C1O (stereo partly shown) [Compound 1M, 3,5-dicoumaroylquinic acid] |  |  | > 500 |  |  |  | 24 | > 500 |  |  | > 500 | > 500 | fold drop in potency of TbCet1 inhibition versus 3,5-dicaffeoylquinic acid (compound 1B) (TbCet1 [1]): 340 fold
O=C(/C=C/c1ccc(O)cc1)OC1[C@H](O)CC(O)(C(=O)O)C[C@H]1O (stereo partly shown) [Compound 1N] | > 500 |  | > 500 |  | > 500 |  | 25 | > 500 |  |  |  |  | 
O=C(O[C@@H]1C[C@@](O)(C(=O)O)C[C@@H](O)[C@@H]1O)c1cc(O)c(O)c(O)c1 [Compound 1O, 5-galloylquinic acid] |  |  | > 500 |  |  | 0.08 | 125 | > 500 |  |  | > 500 | 10 | activity against CthTTM (in words) (CthTTM): no activity; activity against MimiCE (in words) (MimiCE): no activity; activity against Lef4 (in words) (Lef4): no activity
O=C(OC[C@H]1O[C@@H](OC(=O)c2cc(O)c(O)c(O)c2)[C@H](OC(=O)c2cc(O)c(O)c(O)c2)[C@@H](OC(=O)c2cc(O)c(O)c(O)c2)[C@@H]1OC(=O)c1cc(O)c(O)c(O)c1)c1cc(O)c(O)c(O)c1 [Compound 2A, pentagalloylglucose] |  |  | 5.1 |  |  |  | 0.046 |  |  |  |  |  | IC50 (TbCet1 [2]): 0.04 µM; IC50 (SceCet1; read-out: IC50 SceCet1): 3.2 µM; IC50 (Lef4): 59 µM
O=C(CCO[C@@H]1O[C@H](CO)[C@@H](O)[C@H](O)[C@H]1O)c1ccc(O)cc1 [Compound 2B, 3-O-(4-hydroxyphenylpropanone)-1-glucopyranoside] |  | 44 |  | 182 |  | 62 |  | 150 | 227 | 0.66 |  |  | fold lower potency against CthTTM than against TbCet1 (CthTTM): 44 fold; IC50 (CthTTM; [6]): 29 µM; IC50 (TbCet1 [2]; read-out: IC50 by HTS assay, colorimetric phosphate release from ATP, Mn2+): 1.1 µM; fold lower potency against MimiCE than against TbCet1 (MimiCE): 180 fold; IC50 (MimiCE; [7]): 120 µM; fold lower potency against SceCet1 than against TbCet1 (SceCet1): 62 fold; IC50 (SceCet1; [8]): 41 µM
